One data set addresses T1, tau protein (Homo sapiens, UniProt P10636).
T1 construct: fused on or other part: Split fluorescent-protein halves for BiFC are fused to tau; In the published tau-BiFC line these are Venus VN173 and VC155
The data set is described as follows: Tau-BiFC cell model: inhibition of tau protein aggregation. The following applies: for remaining activity at 3 µM / remaining activity at 10 µM: 48 h; for remaining activity at 3 µM: compounds marked *: measured at 3 μM, read-out: Response; for IC50: Tau BiFC in cells, with Forskolin 30 μM, 48 hours; for remaining activity at 10 µM: read-out: Response (% @10 μM). It is filed as cell-based. The protocol:
(§1) In order to select novel tau protein aggregation-inhibiting substances, tau-BiFC cell model, in which formation of tau oligomers in living cells is easily observed, was used. Tau-BiFC cells were aliquoted into a 384-well plate. On the next day, the cells were treated with each of the compounds prepared according to Examples 1 to 175 at concentrations of 1 μM, 3 μM, and 10 μM, together with Forskolin (at a treatment concentration of 30 μM), which is a compound inducing tau protein aggregation by activating tau […] PKA. After 48 hours, nuclei in the cells were stained using Hoechst (at a treatment concentration of 2 μg/mL), and BiFC fluorescence intensity was automatically measured using Operetta (PerkinElmer) to count stained nuclei in each well out of the entire well plate. The group treated only with Forskolin, which induces tau protein aggregation, was set to a reference point of a 100% tau protein-aggregated state, and the effects of the compounds were confirmed using the equation “BiFC fluorescence intensity due to compound synthesized according to embodiment of present invention/(fluorescence intensity of control group treated only with Forskolin inducing tau protein aggregation−fluorescence intensity of untreated control group)×100”. Furthermore, the degree of cytotoxicity induced by the newly synthesized compound was also measured based on the 100% cell viability of the group treated only with Forskolin as a reference, and the cytotoxicity value of each compound was calculated using the equation “(number of stained nuclei in group treated with compound/number of stained nuclei in group treated with Forskolin)×100”. Based on the treatment results, substances inhibiting intracellular tau protein aggregation were selected from a series of candidate groups showing a tau protein aggregation inhibition rate of 70% or more and cell viability of 100% at a compound treatment concentration of 10 μM or more.
(§2) In order to evaluate dose-dependent tau protein aggregation inhibition effects of the compounds selected according to Experimental Example 1 on tau protein aggregation, tau-BiFC cells were treated with the selected compounds at concentrations of 0.03 μM, […], 0.3 μM, 1 μM, 3 μM, 10 μM, and 30 μM, respectively, together with Forskolin (at a treatment concentration of 30 μM), which is a tau protein aggregation inducing substance. After 48 hours, tau protein aggregation reaction and degrees of cytotoxicity were analyzed by observing images of the cells. IC50 and toxicity of the compounds were analyzed by way of nonlinear regression analysis of prism software (Graph Pad).

For the next data set, the system named is Tau-BiFC cells. The data set is described as follows: Cell viability (cytotoxicity) in tau-BiFC cells, count of stained nuclei. It is filed as cell-based. The following applies: Forskolin-only group = 100% cell viability; for Cell viability: compounds marked *: measured at 3 μM; for Cell viability (% @10 μM): compound 10 μM. The procedure:
as §1, §2

Setting [1] is: Forskolin-only group = 100% tau protein-aggregated state.
The mark [2] stands for this setting: compound 10 μM, BiFC fluorescence, Forskolin-only group = 100% tau protein-aggregated state.

T1 sequence (P10636 2-441 isoform P10636-8 limits assumed): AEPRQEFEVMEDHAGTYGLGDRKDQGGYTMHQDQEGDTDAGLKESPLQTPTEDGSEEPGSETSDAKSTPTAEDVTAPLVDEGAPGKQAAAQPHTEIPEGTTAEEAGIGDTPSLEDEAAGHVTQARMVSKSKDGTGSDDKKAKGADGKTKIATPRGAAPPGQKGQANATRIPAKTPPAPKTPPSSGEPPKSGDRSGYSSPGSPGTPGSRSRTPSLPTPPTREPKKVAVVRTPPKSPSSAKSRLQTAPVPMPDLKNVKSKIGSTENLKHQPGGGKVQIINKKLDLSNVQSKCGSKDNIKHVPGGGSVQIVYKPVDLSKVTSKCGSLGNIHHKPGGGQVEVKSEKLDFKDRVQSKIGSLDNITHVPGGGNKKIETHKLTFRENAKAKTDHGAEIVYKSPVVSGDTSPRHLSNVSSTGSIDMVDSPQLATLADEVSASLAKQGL

As for `COc1cc(NN=C(C#N)C#N)ccc1OCc1ncccn1` [Compound 161, (3-methoxy-4-(pyrimidin-2-ylmethoxy)phenyl)carbonohydrazonoyl dicyanide], the remaining activity at 3 µM on tau protein (setting [1]) was -17%. The same compound returned an IC50 against tau protein of 109 nM. In the data set on Tau-BiFC cells, the Cell viability was 119%.
Consider `COc1cc(C(=O)Nc2ccc(C)nc2)ccc1NN=C(C#N)C#N` [Compound 57, (2-methoxy-4-(6-methylpyridin-3-ylcarbamoyl)phenyl)carbonohydrazonoyl dicyanide], for which the remaining activity at 10 µM at tau protein (setting [2]) amounted to 51.7%. The “Cell viability (% @10 μM)” value in the data set with Tau-BiFC cells came out at 108.6%.
For `N#CC(C#N)=NNc1ccc(NC(=O)c2cccc(F)c2)nc1` [Compound 18, (6-(3-fluorobenzamido)pyridin-3-yl)carbonohydrazonoyl dicyanide], at tau protein (setting [2]), the remaining activity at 10 µM turned out to be 0%. The IC50 against tau protein was 660 nM. The “Cell viability (% @10 μM)” value in the data set on Tau-BiFC cells was 113%.
On the same counts, the results for `Cc1ccc(C(=O)Nc2ccc(NN=C(C#N)C#N)cn2)cc1F` [Compound 22, (6-(3-fluoro-4-methylbenzamido)pyridin-3-yl)carbonohydrazonoyl dicyanide] are 0%, 320 nM and 105.8%.
On the same counts, the results for `Cc1cnc(C(=O)Nc2ccc(NN=C(C#N)C#N)cc2C)cn1` [Compound 8, (3-methyl-4-(5-methylpyrazine-2-carboxamido)phenyl)carbonohydrazonoyl dicyanide] are 0%, 40 nM and 88%.
On to `Cc1cnc(C(=O)Nc2ccc(NN=C(C#N)C#N)cc2F)cn1` [Compound 7, (3-fluoro-4-(5-methylpyrazine-2-carboxamido)phenyl)carbonohydrazonoyl dicyanide], for which the remaining activity at 10 µM at tau protein (setting [2]) turned out to be 0%. For the same compound, in the data set on Tau-BiFC cells, the “Cell viability (% @10 μM)” value was 30.6%.
Consider `COc1cc(NN=C(C#N)C#N)ccc1OCc1cscn1` [Compound 167, (3-methoxy-4-(thiazol-4-ylmethoxy)phenyl)carbonohydrazonoyl dicyanide], for which, at tau protein (setting [1]), the remaining activity at 3 µM is -38%. The same compound gave an IC50 against tau protein of 10 nM. In addition, the Cell viability with Tau-BiFC cells was found to be 118%.
Turning to `COc1cc(NN=C(C#N)C#N)ccc1NC(=O)c1cnc(C)cn1` [Compound 10, (3-methoxy-4-(5-methylpyrazine-2-carboxamido)phenyl)carbonohydrazonoyl dicyanide], the remaining activity at 10 µM at tau protein (setting [2]) was found to be 0%. For the same compound, the “Cell viability (% @10 μM)” value in the data set on Tau-BiFC cells was 21.7%.
For the compound “(2-methoxy-4-(5-methylpyrazine-2-carboxamido)phenyl)carbonohydrazonoyl dicyanide [Compound 4]”, the “Response (% @10 μM)” value at tau protein (setting [2]) was 30.7%. The “Cell viability (% @10 μM)” value with Tau-BiFC cells is 67%.
With `N#CC(C#N)=NNc1ccc(Oc2ccccc2)cn1` [Compound 70, (5-phenoxypyridin-2-yl)carbonohydrazonoyl dicyanide], on tau protein (setting [2]), the remaining activity at 10 µM turned out to be 0%. Moreover, the midpoint of inhibition against tau protein, the IC50, lay at 310 nM. The “Cell viability (% @10 μM)” value with Tau-BiFC cells turned out to be 94.5%.
On the same counts, the results for `N#CC(C#N)=NNc1ccc(Oc2cccnc2)c(F)c1` [Compound 72, (3-fluoro-4-(pyridin-3-yloxy)phenyl)carbonohydrazonoyl dicyanide] are 0%, 1990 nM and 129.5%.
Regarding `N#CC(C#N)=NNc1ccc(NC(=O)c2ncccn2)nc1` [Compound 29, (6-(pyrimidine-2-carboxamido)pyridin-3-yl)carbonohydrazonoyl dicyanide], the remaining activity at 10 µM on tau protein (setting [2]) was 0%. This compound showed an IC50 against tau protein of 1040 nM. In addition, the “Cell viability (% @10 μM)” value in the data set with Tau-BiFC cells worked out at 139.9%.
Turning to `COc1ccc(NS(=O)(=O)c2ccc(NN=C(C#N)C#N)cc2)cc1` [Compound 66, (4-(N-(4-methoxyphenyl)sulfamoyl)phenyl)carbonohydrazonoyl dicyanide], on tau protein (setting [2]), the remaining activity at 10 µM turned out to be 61.2%. The “Cell viability (% @10 μM)” value in the data set with Tau-BiFC cells was 123.9%.
On the same counts, the results for `N#CC(C#N)=NNc1ccc(OCCc2ccc(Cl)cc2)nc1` [Compound 131, (6-(4-chlorophenethoxy)pyridin-3-yl)carbonohydrazonoyl dicyanide] are 10.6% and 33.4%.
As to `Cc1cnc(C(=O)Nc2ncc(NN=C(C#N)C#N)cc2C)cn1` [Compound 12, (5-methyl-6-(5-methylpyrazine-2-carboxamido)pyridin-3-yl)carbonohydrazonoyl dicyanide], the remaining activity at 10 µM at tau protein (setting [2]) turned out to be 17.9%. At tau protein, this compound showed an IC50 of 640 nM. For the same compound, the “Cell viability (% @10 μM)” value in the data set on Tau-BiFC cells was found to be 122.1%.
On the same counts, the results for `Cc1ccc(COc2ccc(NN=C(C#N)C#N)cc2)cc1` [Compound 119, (4-(4-methylbenzyloxy)phenyl)carbonohydrazonoyl dicyanide] are 38.9%, 3550 nM and 112.5%.
On the same counts, the results for `N#CC(C#N)=NNc1ccc(OCCc2ccc(C(F)(F)F)cc2)cc1` [Compound 121, (4-(4-(trifluoromethyl)phenethoxy)phenyl)carbonohydrazonoyl dicyanide] are 3.4%, 4610 nM and 72.7%.
On the same counts, the results for `N#CC(C#N)=NNc1ccc(NC(=O)c2ccon2)nc1` [Compound 115, (6-(isoxazole-3-carboxamido)pyridin-3-yl)carbonohydrazonoyl dicyanide] are 0%, 600 nM and 157.6%.
With `N#CC(C#N)=NNc1ccc(C(=O)Nc2cncnc2)cc1` [Compound 50, (4-(pyrimidin-5-ylcarbamoyl)phenyl)carbonohydrazonoyl dicyanide], the remaining activity at 10 µM at tau protein (setting [2]) worked out at 86.6%. Also, the “Cell viability (% @10 μM)” value in the data set on Tau-BiFC cells was determined as 116.4%.
On the same counts, the results for `Cc1ccc(COc2ccc(NN=C(C#N)C#N)cc2C(F)(F)F)cc1` [Compound 132, (4-(4-methylbenzyloxy)-3-(trifluoromethyl)phenyl)carbonohydrazonoyl dicyanide] are 0% and 39.2%.
With `N#CC(C#N)=NNc1ccc(C(=O)Nc2cccnc2)cc1` [Compound 49, (4-(pyridin-3-ylcarbamoyl)phenyl)carbonohydrazonoyl dicyanide], the remaining activity at 10 µM at tau protein (setting [2]) is 75.9%. Further, in the data set on Tau-BiFC cells, the “Cell viability (% @10 μM)” value amounted to 117.2%.
As for `N#CC(C#N)=NNc1ccc(Oc2ccc(C(F)(F)F)cn2)cc1` [Compound 90, (4-(5-(trifluoromethyl)pyridin-2-yloxy)phenyl)carbonohydrazonoyl dicyanide], the remaining activity at 10 µM at tau protein (setting [2]) is 0%. It took 1290 nM to reach half-maximal inhibition against tau protein (IC50). The “Cell viability (% @10 μM)” value in the data set on Tau-BiFC cells worked out at 43.7%.
On the same counts, the results for `N#CC(C#N)=NNc1ccc(OCCc2ccc(Cl)cc2)cc1` [Compound 123, (4-(4-chlorophenethoxy)phenyl)carbonohydrazonoyl dicyanide] are 0%, 780 nM and 34.6%.
On the same counts, the results for `Cc1ccc(COc2ccc(NN=C(C#N)C#N)cn2)cc1` [Compound 99, (6-(4-methylbenzyloxy)pyridin-3-yl)carbonohydrazonoyl dicyanide] are 0%, 240 nM and 29.2%.
On to `N#CC(C#N)=NNc1ccc(NS(=O)(=O)c2cccs2)nc1` [Compound 62, (6-(thiophene-2-sulfonamido)pyridin-3-yl)carbonohydrazonoyl dicyanide], for which the remaining activity at 10 µM at tau protein (setting [2]) was found to be 87.3%. For the same compound, in the data set with Tau-BiFC cells, the “Cell viability (% @10 μM)” value was found to be 116.5%.
Regarding `Cc1cnc(NC(=O)c2ccc(NN=C(C#N)C#N)c(F)c2)cn1` [Compound 56, (2-fluoro-4-(5-methylpyrazin-2-ylcarbamoyl)phenyl)carbonohydrazonoyl dicyanide], the remaining activity at 10 µM on tau protein (setting [2]) amounted to 0%. The compound further showed a 50% inhibitory concentration (IC50) on tau protein of 1850 nM. Besides, the “Cell viability (% @10 μM)” value in the data set on Tau-BiFC cells turned out to be 129.9%.
On to `N#CC(C#N)=NNc1ccc(Oc2ccccc2)c(F)c1` [Compound 71, (3-fluoro-4-phenoxyphenyl)carbonohydrazonoyl dicyanide], for which, at tau protein (setting [2]), the remaining activity at 10 µM was determined as 0%. The “Cell viability (% @10 μM)” value in the data set on Tau-BiFC cells worked out at 46%.

Source of the values: patent publication US12649723B2, “Carbonohydrazonoyl dicyanide compounds comprising 2 or more aryl or heteroaryl connected via linker and use thereof” (KOREA INSTITUTE OF SCIENCE AND TECHNOLOGY, priority 2020, dated 2026).
